From the supplement of paper PMC10307832

Columns and labels:
Experiment in all cases: relative viability (nuclei count vs DMSO), 5 days (fraction); higher = more cells survive
Dactolisib + Luminespib = compound: Cn1c(=O)n(-c2ccc(C(C)(C)C#N)cc2)c2c3cc(-c4cnc5ccccc5c4)ccc3ncc21 [Dactolisib] + CCNC(=O)c1noc(-c2cc(C(C)C)c(O)cc2O)c1-c1ccc(CN2CCOCC2)cc1 [Luminespib] (partner 0.01 µM)
Outline: (§1)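 Lung cancer cell lines, seeded in 1536-well plates, were treated the following day by pin tool with a single drug or with five library-drug doses (not always all listed) in √10 steps on top of a fixed anchor-drug dose. Cells were fixed and nuclei stained in one step after 5 days, and nuclei were counted. Relative viability is the nuclei count for treated wells divided by that for vehicle wells, reported as medians of duplicate plates.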

AZ505 + Crizotinib = compound: C1CCC(CC1)N(CCNCCC2=C3C(=C(C=C2)O)NC(=O)CO3)C(=O)CCNCCC4=CC(=C(C=C4)Cl)Cl [AZ505] + C[C@@H](Oc1cc(-c2cnn(C3CCNCC3)c2)cnc1N)c1c(Cl)ccc(F)c1Cl [Crizotinib] (partner 1 µM)
Outline: as §1

Dactolisib + Dasatinib = compound: Cn1c(=O)n(-c2ccc(C(C)(C)C#N)cc2)c2c3cc(-c4cnc5ccccc5c4)ccc3ncc21 [Dactolisib] + Cc1nc(Nc2ncc(C(=O)Nc3c(C)cccc3Cl)s2)cc(N2CCN(CCO)CC2)n1 [Dasatinib] (partner 0.075 µM)
Outline: as §1

Dactolisib + Navitoclax = compound: Cn1c(=O)n(-c2ccc(C(C)(C)C#N)cc2)c2c3cc(-c4cnc5ccccc5c4)ccc3ncc21 [Dactolisib] + CC1(C)CCC(c2ccc(Cl)cc2)=C(CN2CCN(c3ccc(C(=O)NS(=O)(=O)c4ccc(N[C@H](CCN5CCOCC5)CSc5ccccc5)c(S(=O)(=O)C(F)(F)F)c4)cc3)CC2)C1 [Navitoclax] (partner 0.5 µM)
Outline: as §1

| Cell Line | relative viability (Dactolisib + Luminespib; first compound 0.002 µM) | relative viability (Dactolisib + Luminespib; first compound 0.006325 µM) | relative viability (Dactolisib + Luminespib; first compound 0.02 µM) | relative viability (Dactolisib + Luminespib; first compound 0.06325 µM) | relative viability (Dactolisib + Luminespib; first compound 0.2 µM) | relative viability (AZ505 + Crizotinib; first compound 0.08 µM) | relative viability (AZ505 + Crizotinib; first compound 0.253 µM) | relative viability (AZ505 + Crizotinib; first compound 0.8 µM) | relative viability (AZ505 + Crizotinib; first compound 2.53 µM) | relative viability (AZ505 + Crizotinib; first compound 8 µM) | relative viability (Dactolisib + Dasatinib; first compound 0.002 µM) | relative viability (Dactolisib + Dasatinib; first compound 0.006325 µM) | relative viability (Dactolisib + Dasatinib; first compound 0.02 µM) | relative viability (Dactolisib + Dasatinib; first compound 0.06325 µM) | relative viability (Dactolisib + Dasatinib; first compound 0.2 µM) | relative viability (Dactolisib + Navitoclax; first compound 0.002 µM) | relative viability (Dactolisib + Navitoclax; first compound 0.006325 µM) | relative viability (Dactolisib + Navitoclax; first compound 0.02 µM) | relative viability (Dactolisib + Navitoclax; first compound 0.06325 µM) | relative viability (Dactolisib + Navitoclax; first compound 0.2 µM) |
| --- | --- | --- | --- | --- | --- | --- | --- | --- | --- | --- | --- | --- | --- | --- | --- | --- | --- | --- | --- | --- |
| LOU-NH91 | 0.378 | 0.295 | 0.351 | 0.316 | 0.317 | 0.713 | 0.723 | 0.722 | 0.778 | 0.72 | 0.533 | 0.591 | 0.504 | 0.438 | 0.351 | 0.547 | 0.6 | 0.646 | 0.431 | 0.385 |
| LU99A | 0.257 | 0.228 | 0.29 | 0.202 | 0.192 | 0.474 | 0.592 | 0.594 | 0.638 | 0.575 | 0.621 | 0.449 | 0.403 | 0.225 | 0.205 | 0.704 | 0.689 | 0.291 | 0.173 | 0.185 |
| LXF-289 | 0.698 | 0.688 | 0.669 | 0.478 | 0.403 | 0.738 |  | 0.812 | 0.788 | 0.762 | 0.22 | 0.21 | 0.235 | 0.221 | 0.121 | 1.02 | 0.932 | 1 | 0.828 | 0.571 |
| NCI-H23 | 0.205 | 0.208 | 0.222 | 0.191 | 0.203 | 0.502 |  | 0.443 | 0.638 | 0.557 | 0.852 | 0.682 | 0.679 | 0.325 | 0.302 | 0.934 | 0.842 | 0.829 | 0.412 | 0.346 |
| NCI-H322M | 0.36 | 0.741 | 0.612 | 0.4 | 0.323 | 0.93 | 0.786 | 0.878 | 0.828 | 0.931 | 0.267 | 0.256 | 0.243 | 0.234 | 0.235 | 1.22 | 1.17 | 1.16 | 0.733 | 0.677 |
| NCI-H441 | 0.446 | 0.331 | 0.305 | 0.285 | 0.206 | 0.615 | 0.823 | 0.995 | 0.699 | 0.738 | 0.729 | 0.477 | 0.527 | 0.357 | 0.205 | 0.851 | 0.416 | 0.577 | 0.237 | 0.303 |
| NCI-H460 | 0.0375 | 0.0432 | 0.0185 | 0.0179 | 0.0243 | 0.78 | 1.08 | 0.898 | 0.784 | 0.782 | 0.568 | 0.503 | 0.448 | 0.185 | 0.112 | 1.21 | 1.02 | 1.16 | 0.169 | 0.0342 |
| NCI-H520 | 0.22 | 0.184 | 0.233 | 0.207 | 0.204 | 0.744 | 0.899 | 0.704 | 0.727 | 0.728 | 0.182 | 0.177 | 0.149 | 0.122 | 0.17 | 1.01 | 0.871 | 0.633 | 0.261 | 0.184 |
| NCI-H596 | 0.925 | 0.938 | 0.583 | 0.347 | 0.28 | 0.922 | 0.495 | 0.799 | 0.972 | 0.985 | 0.629 | 0.539 | 0.528 | 0.384 | 0.319 | 0.894 | 0.852 | 0.701 | 0.416 | 0.171 |
| NCI-H647 | 0.153 | 0.149 | 0.109 | 0.0951 | 0.0891 | 0.941 | 1.15 | 0.993 | 0.957 | 1.25 | 0.164 | 0.191 | 0.143 | 0.0579 | 0.068 | 1.1 | 0.964 | 0.685 | 0.295 | 0.348 |
| NCI-H727 | 0.417 | 0.419 | 0.351 | 0.436 | 0.447 | 0.683 | 0.829 | 0.738 | 0.805 | 0.827 | 0.384 | 0.445 | 0.461 | 0.3 | 0.257 | 0.467 | 0.506 | 0.341 | 0.248 | 0.162 |
| NCI-H838 | 0.285 | 0.377 | 0.317 | 0.174 | 0.159 | 0.773 | 0.841 | 0.809 | 0.824 | 0.743 | 0.261 | 0.259 | 0.247 | 0.248 | 0.224 | 1.13 | 0.776 | 0.474 | 0.205 | 0.251 |
| NCI-H1355 | 0.862 | 0.705 | 0.529 | 0.276 | 0.186 | 1.06 | 1.04 | 1.12 | 1.02 | 1.05 | 0.806 | 0.743 | 0.689 | 0.409 | 0.218 | 0.959 | 0.836 | 0.86 | 0.335 | 0.234 |
| NCI-H1437 | 1.15 | 1.18 | 1.21 | 1.14 | 0.59 | 0.801 | 0.852 | 0.863 | 0.927 | 0.895 | 0.378 | 0.426 | 0.378 | 0.358 | 0.227 | 1.2 | 1.07 | 1.07 | 0.967 | 0.837 |
| NCI-H1650 | 0.19 | 0.185 | 0.192 | 0.206 | 0.202 | 0.985 | 1.12 | 0.991 | 0.963 | 0.915 | 0.306 | 0.3 | 0.296 | 0.245 | 0.205 | 1.18 | 0.998 | 0.83 | 0.337 | 0.416 |
| NCI-H1651 | 1.13 | 0.818 | 0.863 | 0.309 | 0.321 | 0.804 | 0.82 | 0.874 | 0.823 | 0.885 | 0.388 | 0.435 | 0.318 | 0.238 | 0.177 | 1.13 | 0.865 | 0.755 | 0.317 | 0.276 |
